According to patent US20230152329A1, “NOVEL SPLIT-LUCIFERASE ENZYMES AND APPLICATIONS THEREOF” (ARIZONA BOARD OF REGENTS ON BEHALF OF THE UNIVERSITY OF …, priority 2020, published 2023):
Read-outs that look alike come from different tables or passages of the source.

Key:
[1] = molecular target: T1, protein-protein interaction of Bcl-xL and BAK (Homo sapiens, UniProt Q07817); assay: In cellulo split-luciferase assay, inhibition of Bcl-xL/BAK interaction in HEK293T cells; type: cell-based; details: 14 hours; for inhibition at 10 µM: HEK-293T, read-out: Percent Inhibition
T1 construct: appending the soluble domain of Bcl-xL to the C-terminal fragment of N-Fluc228 Y33A/H46A; expressed in transfected cells; host or cells: HEK293T, transient transfection (pcDNA 3.1 constructs)
Protocol: N-terminal halves of firefly luciferase (N-Fluc) constructs were generated by fusing FK506-binding protein (FKBP) or Bcl-xL 209 (CΔ24) to the C-terminal of N-Fluc with a 27-residue glycine-serine linker in pcDNA 3.1 via restriction cloning. […] For in vitro assays, mRNA was generated using RiboMaX large scale RNA production system (T7) for 4 h at 30° C. and subsequently purified using G50-microcolumns.
HEK293T cells were maintained in DMEM supplemented with 10% (v/v) FBS, 2.5 μg/mL Amphotericin B, 100 U/mL penicillin, and 100 μg/mL streptomycin, and in a 37° C. water-saturated incubator with 5% CO2. For in cellulo experiments, 3×10^6 cells were seeded in 60 mm dishes for 24 h and then transiently transfected with equal amounts of DNA of each luciferase fragment using PolyJet In Vitro DNA Transfection Reagent. Twelve hours following transfection, 2.5×10^5 cells were transferred to 24-well plates and incubated for an additional 24 h. […] All reported data was done at least in duplicate and repeated on different days. Data from luciferase assays were all normalized by lysate load and with background correction of equivalently treated mock transfected HEK293T cells.
Split-Fluc228 Y33A/H46A constructs were created by appending the soluble domain of Bcl-xL to the C-terminal fragment of N-Fluc228 Y33A/H46A with a 27-residue glycine-serine linker, giving N-Fluc228 Y33A/H46A-GS27-Bcl-xL. The BH3 domain of BAK (20 residues) was appended to the N-terminal fragment of C-Fluc229 through a 30-residue glycine-serine linker, providing BAK-GS30-C-Fluc229.

FKBP-Rapamycin-FRB = molecular target: T2, FKBP-Rapamycin-FRB (Homo sapiens, UniProt P42345+P62942); assay: Cell-free (rabbit reticulocyte lysate) rapamycin-inducible split-luciferase assay; type: biochemical; details: cell-free RRL; for rapamycin dependent luminescence signal (overall signal): 100 nM rapamycin; for unassisted/background complementation: without added rapamycin (DMSO)
T2 construct: N-terminal fragment of firefly luciferase (N-Fluc); split at 159, 228, 374, 397 or 405; C-terminal fragment of firefly luciferase (C-Fluc); made in house; host or cells: cell-free translation in rabbit reticulocyte lysate (RRL) from in vitro transcribed mRNA
From the text: N-terminal halves of firefly luciferase (N-Fluc) constructs were generated by fusing FK506-binding protein (FKBP) or Bcl-xL 209 (CΔ24) to the C-terminal of N-Fluc with a 27-residue glycine-serine linker in pcDNA 3.1 via restriction cloning. C-terminal halves of firefly luciferase (C-Fluc) were created by fusing either FKBP rapamycin-binding (FRB) domain or the BH3-domain of BAK to the N-terminal of C-Fluc with a 30-residue glycine-serine linker in pcDNA 3.1 via restriction cloning. For in vitro assays, mRNA was generated using RiboMaX large scale RNA production system (T7) for 4 h at 30° C. and subsequently purified using G50-microcolumns.
Following translation, 20 μL of lysate was added to 80 μL of L-Glo luciferase assay reagent, incubated at room temperature for 1 min and luminescence was subsequently read using a luminometer with 10 s integration time. All reported data are at least in duplicate and assays have been repeated on different days. Data from the reported luciferase assays were all normalized with background correction of equivalent treatment of RRL without added mRNA.
The N-terminal fragment of each split-luciferase was fused to FKBP at the C-terminal end and the C-terminal fragment of each split-luciferase was fused to FRB at the N-terminal end. Referring to FIG. 2A, the linkers between the enzyme fragments and the FKBP or FRB included 27 to 30 residue glycine-serine linkers. With the five split-Fluc constructs in hand, complementation was tested employing a cell-free protein expression approach using rabbit reticulocyte lysate (RRL), which allows for rapid protein expression and analysis. […] Following incubation, L-Glo reagent containing the substrate, luciferin, was added to each of the split-Fluc pairs and luminescence was subsequently measured.

[2] = 10 μM ABT-737, N-Fluc228 WT-Bcl-xL CΔ24 with BAK-CFluc229, HEK293T
[3] = 10 μM ABT-737, N-Fluc228 Y33A/H46A-Bcl-xL CΔ24 with BAK-CFluc229, HEK293T

T2 sequence (P62942 whole entry, the tested form may be a part): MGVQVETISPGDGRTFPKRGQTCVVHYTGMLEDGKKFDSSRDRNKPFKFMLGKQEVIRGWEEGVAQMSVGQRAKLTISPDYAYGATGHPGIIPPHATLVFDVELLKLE
T2 sequence (P42345 2012-2144 limits assumed): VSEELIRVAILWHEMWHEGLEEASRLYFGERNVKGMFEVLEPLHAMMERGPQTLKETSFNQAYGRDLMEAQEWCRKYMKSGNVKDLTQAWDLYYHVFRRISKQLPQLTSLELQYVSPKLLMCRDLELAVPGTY
T1 sequence (Q07817 1-209 limits assumed): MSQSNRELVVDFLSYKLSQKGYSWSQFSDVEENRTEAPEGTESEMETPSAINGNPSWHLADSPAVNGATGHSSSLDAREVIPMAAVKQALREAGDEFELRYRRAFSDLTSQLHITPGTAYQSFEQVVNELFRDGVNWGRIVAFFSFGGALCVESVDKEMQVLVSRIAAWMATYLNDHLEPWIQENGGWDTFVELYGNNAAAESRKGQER

Row | Molecule | Average RLU [1, 2] | Average RLU [1, 3] | Percent Inhibition [1, 3] | inhibition at 10 µM [1, 2] | inhibition at 10 µM [1, 3] | rapamycin dependent luminescence signal (overall signal) (FKBP-Rapamycin-FRB) | unassisted/background complementation (FKBP-Rapamycin-FRB)
1 | CN(C)CC[C@H](CSc1ccccc1)Nc1ccc(S(=O)(=O)NC(=O)c2ccc(N3CCN(Cc4ccccc4-c4ccc(Cl)cc4)CC3)cc2)cc1[N+](=O)[O-] [ABT-737] | 438,145 RLU | 2,258 RLU | 99.8% | 96.1% | > 99% |  | 
2 | Y33A: first-generation split-Fluc228 with N-FLuc228 Y33A single mutant (SEQ ID NO: 8) (protein) MEDAKNIKKGPAPFYPLEDGTAGEQLHKAMKRAALVPGTIAFTDAHIEVNITYAEYFEMSVRLAEAMKRYGLNTNHRIVVCSENSLQFFMPVLGALFIGVAVAPANDIYNERELLNSMNISQPTVVFVSKKGLQKILNVQKKLPIIQKIIIMDSKTDYQGFQSMYTFVTSHLPPGFNEYDFVPESFDRDKTIALIMNSSGSTGLPKGVALPHRTACVRFSHARDPIFG |  |  |  |  |  | maintaining strong rapamycin dependent signals | significantly reduced unassisted complementation
3 | H46A: first-generation split-Fluc228 with N-FLuc228 H46A single mutant (SEQ ID NO: 7) (protein) MEDAKNIKKGPAPFYPLEDGTAGEQLHKAMKRYALVPGTIAFTDAAIEVNITYAEYFEMSVRLAEAMKRYGLNTNHRIVVCSENSLQFFMPVLGALFIGVAVAPANDIYNERELLNSMNISQPTVVFVSKKGLQKILNVQKKLPIIQKIIIMDSKTDYQGFQSMYTFVTSHLPPGFNEYDFVPESFDRDKTIALIMNSSGSTGLPKGVALPHRTACVRFSHARDPIFG |  |  |  |  |  | maintaining strong rapamycin dependent signals | significantly reduced unassisted complementation
